{"source": "patent US10829796B2", "about": "“Bacteria identification and antimicrobial susceptibility test” (priority 2015, dated 2020)", "test_system": "bacteria in clinical bovine mastitis milk samples", "experiment": "Combined bacteria identification and antimicrobial susceptibility test (colour of wells, MIC) on clinical bovine mastitis milk samples", "format": "cell-based", "method": "Clinical bovine mastitis milk samples were collected by a vet clinic in South Island, New Zealand. Samples were stored in the freezer for several months and shipped frozen to the testing facility. In this Example, the term “clinical” means that dairy cows had clinical symptoms of an udder infection e.g. cow behaved unusual, milk clots, swollen udder among other typical symptoms. Testing was executed in microwell plate comprising of 24 wells (3×8 wells).\nIn addition, 20 ul of clinical mastitis sample was added to each well with a laboratory pipette.\nAbbreviations • 1. 80 ul GC+10 ul Tell: 80 ul Giolitti Cantoni base broth+10 ul Tellurite solution (1%); • 2. 80 ul TSB/Esc/Fer Cit: 80 ul Tryptic soy broth containing 0.25% Esculin and 0.125% Ammonium Ferric Citrate; • 3. 80 ul TSB/Esc/Fer Cit+10 ul Genta: 80 ul Tryptic soy broth containing 0.25% Esculin and 0.125% Ammonium Ferric Citrate+10 ul of Gentamycin solution 10 mg/ml; • 4. 80 ul McC/PR25: 80 ul MacConkey broth (single strength) containing 0.0125% phenol red; and • 5. 80 ul TSB/PR25: 80 ul Tryptic soy broth containing 0.0125% phenol red. Bacteria Identification\nColumns A to C and rows 1 and 2 were used for bacteria identification. A1: coagulase positive Staph; A2: Staphylococci; B1: Strep group D; B2: Strep group D; C1: general enrichment media (gram+ and gram-bacteria); C2: coliform bacteria.\nColumn A3 to A8: serial dilution of benzyl penicillin as potassium. Column B3 to B8: serial dilution of ceftiofur as hydrochloride. Column C3 to C8: serial dilution of cloxacillin as sodium. Antibiotic concentrations are listed as free form ranging between 4 ug/ml to 0.05 ug/ml.\nMinimum inhibitory substance concentration (MIC) is here defined as the concentration if a colour change occurs between two wells (one well remains red with drug concentration 1, the other one yellow with drug concentration 2, whereas drug concentration 1 is larger than drug concentration 2) then the MIC is the value of drug concentration 1.\nTable 21 indicates the microwell plate configuration #1; Drugs: Benzylpenicillin as potassium; Cloxacillin as sodium; Ceftiofur as hydrochloride; Drug concentration in each well (A3 to C8) is based on 80 μl composition+10 μl drug solution+20 μl clinical mastitis milk sample and equivalent to listed drug concentration in μg/ml; 20 ul of clinical bovine mastitis milk sample was added to each well (A1 to C8).\nIn addition, each well received one drop of clinical sample from a transfer pipette which was on average about 35 mg. This was determined through weighing the well plate prior and after the addition of clinical mastitis samples. This weight was then divided by 24.\n• 1. 80 ul GC+10 ul Tell: 80 ul Giolitti Cantoni base broth+10 ul Tellurite solution (1%); • 2. 80 ul TSB/Esc/Fer Cit: 80 ul Tryptic soy broth containing 0.25% Esculin and 0.125% Ammonium Ferric Citrate; • 3. 80 ul TSB/Esc/Fer Cit+10 ul Genta: 80 ul Tryptic soy broth containing 0.25% Esculin and 0.125% Ammonium Ferric Citrate+10 ul of Gentamycin solution 10 mg/ml; • 4. 80 ul McC/PR25: 80 ul MacConkey broth (single strength) containing 0.0125% phenol red; and • 5. 80 ul TSB/PR25: 80 ul Tryptic soy broth containing 0.0125% phenol red.\nColumns A to C and rows 1 and 2 were used for bacteria identification. A1: coagulase positive Staph; A2: Staphylococci; B1: Strep Group D; B2: -; C1: general enrichment media (gram+ and gram-); C2: coliform bacteria.\nColumn A3 to A8: serial dilution of benzyl penicillin as potassium. Drug concentrations given as free form ranging between 4 ug/ml to 0.05 ug/ml. Column B3 to B8: serial dilution of ceftiofur as hydrochloride. Drug concentrations given as free form ranging between 4 ug/ml to 0.05 ug/ml. Column C3 to C8: serial dilution of cloxacillin as sodium. Drug concentrations given as free form ranging between 4 ug/ml to 0.05 ug/ml.", "data": [{"smiles": "CC1(C)S[C@@H]2[C@H](NC(=O)Cc3ccccc3)C(=O)N2[C@H]1C(=O)O", "note": "[benzyl penicillin]", "values": [{"measurement": "Colour of media in each well", "setting": "ID 1, T = 22 h, 37° C., plate configuration #1, drug 0.05 μg/ml", "result": "orange"}, {"measurement": "Colour of media in each well", "setting": "ID 1, T = 22 h, 37° C., plate configuration #1, drug 0.1 μg/ml", "result": "red"}, {"measurement": "Colour of media in each well", "setting": "ID 1, T = 22 h, 37° C., plate configuration #1, drug 0.5 μg/ml", "result": "red"}, {"measurement": "Colour of media in each well", "setting": "ID 1, T = 22 h, 37° C., plate configuration #1, drug 1 μg/ml", "result": "red"}, {"measurement": "Colour of media in each well", "setting": "ID 1, T = 22 h, 37° C., plate configuration #1, drug 2 μg/ml", "result": "red"}, {"measurement": "Colour of media in each well", "setting": "ID 1, T = 22 h, 37° C., plate configuration #1, drug 4 μg/ml", "result": "red"}, {"measurement": "Colour of media in each well", "setting": "ID 2, T = 48 h, 37° C., plate configuration #1, drug 0.05 μg/ml", "result": "yellow"}, {"measurement": "Colour of media in each well", "setting": "ID 2, T = 48 h, 37° C., plate configuration #1, drug 0.1 μg/ml", "result": "yellow"}, {"measurement": "Colour of media in each well", "setting": "ID 2, T = 48 h, 37° C., plate configuration #1, drug 0.5 μg/ml", "result": "yellow"}, {"measurement": "Colour of media in each well", "setting": "ID 2, T = 48 h, 37° C., plate configuration #1, drug 1 μg/ml", "result": "yellow"}, {"measurement": "Colour of media in each well", "setting": "ID 2, T = 48 h, 37° C., plate configuration #1, drug 2 μg/ml", "result": "yellow"}, {"measurement": "Colour of media in each well", "setting": "ID 2, T = 48 h, 37° C., plate configuration #1, drug 4 μg/ml", "result": "yellow"}, {"measurement": "Colour of media in each well", "setting": "ID 3, T = 22 h, 37° C., plate configuration #1, drug 0.05 μg/ml", "result": "yellow"}, {"measurement": "Colour of media in each well", "setting": "ID 3, T = 22 h, 37° C., plate configuration #1, drug 0.1 μg/ml", "result": "yellow"}, {"measurement": "Colour of media in each well", "setting": "ID 3, T = 22 h, 37° C., plate configuration #1, drug 0.5 μg/ml", "result": "yellow"}, {"measurement": "Colour of media in each well", "setting": "ID 3, T = 22 h, 37° C., plate configuration #1, drug 1 μg/ml", "result": "yellow"}, {"measurement": "Colour of media in each well", "setting": "ID 3, T = 22 h, 37° C., plate configuration #1, drug 2 μg/ml", "result": "yellow"}, {"measurement": "Colour of media in each well", "setting": "ID 3, T = 22 h, 37° C., plate configuration #1, drug 4 μg/ml", "result": "yellow"}, {"measurement": "Colour of media in each well", "setting": "ID 3, T = 23 h, 37° C., Table 34, drug 0.05 μg/ml", "result": "yellow"}, {"measurement": "Colour of media in each well", "setting": "ID 3, T = 23 h, 37° C., Table 34, drug 0.1 μg/ml", "result": "yellow"}, {"measurement": "Colour of media in each well", "setting": "ID 3, T = 23 h, 37° C., Table 34, drug 0.5 μg/ml", "result": "yellow"}, {"measurement": "Colour of media in each well", "setting": "ID 3, T = 23 h, 37° C., Table 34, drug 1 μg/ml", "result": "yellow"}, {"measurement": "Colour of media in each well", "setting": "ID 3, T = 23 h, 37° C., Table 34, drug 2 μg/ml", "result": "yellow"}, {"measurement": "Colour of media in each well", "setting": "ID 3, T = 23 h, 37° C., Table 34, drug 4 μg/ml", "result": "yellow"}, {"measurement": "Colour of media in each well", "setting": "ID 3, T~7 h, 37° C., Table 34, drug 0.05 μg/ml", "result": "red"}, {"measurement": "Colour of media in each well", "setting": "ID 3, T~7 h, 37° C., Table 34, drug 0.1 μg/ml", "result": "red"}, {"measurement": "Colour of media in each well", "setting": "ID 3, T~7 h, 37° C., Table 34, drug 0.5 μg/ml", "result": "red"}, {"measurement": "Colour of media in each well", "setting": "ID 3, T~7 h, 37° C., Table 34, drug 1 μg/ml", "result": "red"}, {"measurement": "Colour of media in each well", "setting": "ID 3, T~7 h, 37° C., Table 34, drug 2 μg/ml", "result": "red"}, {"measurement": "Colour of media in each well", "setting": "ID 3, T~7 h, 37° C., Table 34, drug 4 μg/ml", "result": "red"}, {"measurement": "Colour of media in each well", "setting": "ID 3, T~11 h, 37° C., Table 34, drug 0.05 μg/ml", "result": "red"}, {"measurement": "Colour of media in each well", "setting": "ID 3, T~11 h, 37° C., Table 34, drug 0.1 μg/ml", "result": "red"}, {"measurement": "Colour of media in each well", "setting": "ID 3, T~11 h, 37° C., Table 34, drug 0.5 μg/ml", "result": "red"}, {"measurement": "Colour of media in each well", "setting": "ID 3, T~11 h, 37° C., Table 34, drug 1 μg/ml", "result": "red"}, {"measurement": "Colour of media in each well", "setting": "ID 3, T~11 h, 37° C., Table 34, drug 2 μg/ml", "result": "red"}, {"measurement": "Colour of media in each well", "setting": "ID 3, T~11 h, 37° C., Table 34, drug 4 μg/ml", "result": "red"}, {"measurement": "Colour of media in each well", "setting": "ID 4, T = 22 h, 37° C., plate configuration #1, drug 0.05 μg/ml", "result": "yellow"}, {"measurement": "Colour of media in each well", "setting": "ID 4, T = 22 h, 37° C., plate configuration #1, drug 0.1 μg/ml", "result": "yellow"}, {"measurement": "Colour of media in each well", "setting": "ID 4, T = 22 h, 37° C., plate configuration #1, drug 0.5 μg/ml", "result": "yellow"}, {"measurement": "Colour of media in each well", "setting": "ID 4, T = 22 h, 37° C., plate configuration #1, drug 1 μg/ml", "result": "orange"}, {"measurement": "Colour of media in each well", "setting": "ID 4, T = 22 h, 37° C., plate configuration #1, drug 2 μg/ml", "result": "orange"}, {"measurement": "Colour of media in each well", "setting": "ID 4, T = 22 h, 37° C., plate configuration #1, drug 4 μg/ml", "result": "yellow"}, {"measurement": "Colour of media in each well", "setting": "ID 5, T = 23 h, 37° C., plate configuration #2, drug 0.05 μg/ml", "result": "red"}, {"measurement": "Colour of media in each well", "setting": "ID 5, T = 23 h, 37° C., plate configuration #2, drug 0.1 μg/ml", "result": "red"}, {"measurement": "Colour of media in each well", "setting": "ID 5, T = 23 h, 37° C., plate configuration #2, drug 0.5 μg/ml", "result": "red"}, {"measurement": "Colour of media in each well", "setting": "ID 5, T = 23 h, 37° C., plate configuration #2, drug 1 μg/ml", "result": "red"}, {"measurement": "Colour of media in each well", "setting": "ID 5, T = 23 h, 37° C., plate configuration #2, drug 2 μg/ml", "result": "red"}, {"measurement": "Colour of media in each well", "setting": "ID 5, T = 23 h, 37° C., plate configuration #2, drug 4 μg/ml", "result": "red"}, {"measurement": "Colour of media in each well", "setting": "ID 5 to 8, T = 0 h (prior incubation, reference), plate configuration #2, drug 0.05 μg/ml", "result": "red"}, {"measurement": "Colour of media in each well", "setting": "ID 5 to 8, T = 0 h (prior incubation, reference), plate configuration #2, drug 0.1 μg/ml", "result": "red"}, {"measurement": "Colour of media in each well", "setting": "ID 5 to 8, T = 0 h (prior incubation, reference), plate configuration #2, drug 0.5 μg/ml", "result": "red"}]}]}
